Results taken from ChEMBL document CHEMBL4507259 (2021).

Key:
[1] = target: Glycogen synthase kinase-3 alpha (Homo sapiens) (UniProt P49840); details: Compound concentration 1000.0 nM
[2] = target: Cyclin-dependent kinase-like 2 (Homo sapiens) (UniProt Q92772); details: Compound concentration 1000.0 nM
[3] = target: Ribosomal protein S6 kinase alpha-2 (Homo sapiens) (UniProt Q15349); details: Compound concentration 1000.0 nM
D(3) dopamine receptor = D(3) dopamine receptor (Homo sapiens, UniProt P35462); details: Compound concentration 10.0 uM
[4] = target: Mitogen-activated protein kinase 7 (Homo sapiens) (UniProt Q13164); details: Compound concentration 1000.0 nM
[5] = target: Serine/threonine-protein kinase Nek3 (Homo sapiens) (UniProt P51956); details: Compound concentration 1000.0 nM
[6] = target: Mitogen-activated protein kinase kinase kinase 13 (Homo sapiens) (UniProt O43283); details: Compound concentration 1000.0 nM
[7] = tested on: Mast/stem cell growth factor receptor Kit (Homo sapiens), P10721 [V559D,T670I]; details: Compound concentration 1000.0 nM
[8] = target: Casein kinase I isoform gamma-1 (Homo sapiens) (UniProt Q9HCP0); details: Compound concentration 1000.0 nM
[9] = target: Epithelial discoidin domain-containing receptor 1 (Homo sapiens) (UniProt Q08345); details: Compound concentration 1000.0 nM
[10] = target: cAMP-dependent protein kinase catalytic subunit beta (Homo sapiens) (UniProt P22694); details: Compound concentration 1000.0 nM
[11] = target: Calcium/calmodulin-dependent protein kinase type II subunit delta (Homo sapiens) (UniProt Q13557); details: Compound concentration 1000.0 nM
[12] = target: T1, Alpha-1A adrenergic receptor (Homo sapiens) (UniProt P35348); experiment: alpha 1A (h) CEREP ligand profiling; details: filed as antagonist, Compound concentration 10.0 uM
T1 sequence (whole entry): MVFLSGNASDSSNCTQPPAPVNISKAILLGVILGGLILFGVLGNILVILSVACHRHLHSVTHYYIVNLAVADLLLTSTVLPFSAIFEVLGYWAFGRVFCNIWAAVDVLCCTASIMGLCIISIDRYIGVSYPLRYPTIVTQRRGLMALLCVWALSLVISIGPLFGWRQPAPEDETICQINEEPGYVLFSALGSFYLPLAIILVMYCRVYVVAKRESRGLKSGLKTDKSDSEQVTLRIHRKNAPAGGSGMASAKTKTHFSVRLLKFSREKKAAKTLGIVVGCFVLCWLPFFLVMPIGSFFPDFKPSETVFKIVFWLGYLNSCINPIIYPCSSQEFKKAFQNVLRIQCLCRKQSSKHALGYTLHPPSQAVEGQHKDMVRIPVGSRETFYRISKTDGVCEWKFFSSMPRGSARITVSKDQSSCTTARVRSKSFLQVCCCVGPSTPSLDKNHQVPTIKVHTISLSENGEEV

[13] = tested on: Receptor-type tyrosine-protein kinase FLT3 (Homo sapiens), P36888 [UNDEFINED MUTATION]; details: Compound concentration 1000.0 nM
[14] = target: Serine/threonine-protein kinase PAK 4 (Homo sapiens) (UniProt O96013); details: Compound concentration 1000.0 nM
[15] = target: T2, 5-hydroxytryptamine receptor 2C (Homo sapiens) (UniProt P28335); details: Compound concentration 10.0 uM
T2 sequence (whole entry): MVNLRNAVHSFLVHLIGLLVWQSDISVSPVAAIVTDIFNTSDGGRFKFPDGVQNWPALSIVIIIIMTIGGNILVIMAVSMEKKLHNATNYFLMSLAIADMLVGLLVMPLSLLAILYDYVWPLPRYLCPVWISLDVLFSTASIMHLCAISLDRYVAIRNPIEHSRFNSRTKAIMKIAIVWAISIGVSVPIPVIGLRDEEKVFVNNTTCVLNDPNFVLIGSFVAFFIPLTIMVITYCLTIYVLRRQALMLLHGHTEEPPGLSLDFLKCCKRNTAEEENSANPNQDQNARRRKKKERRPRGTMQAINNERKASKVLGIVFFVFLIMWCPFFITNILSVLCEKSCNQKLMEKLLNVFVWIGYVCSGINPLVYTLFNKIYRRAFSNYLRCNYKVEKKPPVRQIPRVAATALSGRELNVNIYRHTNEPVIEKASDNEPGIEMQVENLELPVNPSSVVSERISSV

[16] = target: Cyclin-dependent kinase 2 (Homo sapiens) (UniProt P24941); details: Compound concentration 1000.0 nM
[17] = target: Sigma intracellular receptor 2 (Homo sapiens, UniProt Q5BJF2); details: Compound concentration 10.0 uM
[18] = target: D(4) dopamine receptor (Homo sapiens) (UniProt P21917); details: Compound concentration 10.0 uM
[19] = target: Receptor tyrosine-protein kinase erbB-4 (Homo sapiens) (UniProt Q15303); details: Compound concentration 1000.0 nM
[20] = target: STE20/SPS1-related proline-alanine-rich protein kinase (Homo sapiens) (UniProt Q9UEW8); details: Compound concentration 1000.0 nM
[21] = target: Mitogen-activated protein kinase kinase kinase 7 (Homo sapiens) (UniProt O43318); details: Compound concentration 1000.0 nM
[22] = target: Mitogen-activated protein kinase kinase kinase 15 (Homo sapiens) (UniProt Q6ZN16); details: Compound concentration 1000.0 nM
[23] = target: Calcium/calmodulin-dependent protein kinase type II subunit gamma (Homo sapiens) (UniProt Q13555); details: Compound concentration 1000.0 nM
[24] = target: Serine/threonine-protein kinase WNK4 (Homo sapiens) (UniProt Q96J92); details: Compound concentration 1000.0 nM
[25] = target: Tyrosine-protein kinase receptor TYRO3 (Homo sapiens) (UniProt Q06418); details: Compound concentration 1000.0 nM
[26] = target: Tyrosine-protein kinase Yes (Homo sapiens) (UniProt P07947); details: Compound concentration 1000.0 nM
[27] = tested on: Epidermal growth factor receptor (Homo sapiens), P00533 [T790M]; details: Compound concentration 1000.0 nM

Chain of D(3) dopamine receptor (P35462 whole entry): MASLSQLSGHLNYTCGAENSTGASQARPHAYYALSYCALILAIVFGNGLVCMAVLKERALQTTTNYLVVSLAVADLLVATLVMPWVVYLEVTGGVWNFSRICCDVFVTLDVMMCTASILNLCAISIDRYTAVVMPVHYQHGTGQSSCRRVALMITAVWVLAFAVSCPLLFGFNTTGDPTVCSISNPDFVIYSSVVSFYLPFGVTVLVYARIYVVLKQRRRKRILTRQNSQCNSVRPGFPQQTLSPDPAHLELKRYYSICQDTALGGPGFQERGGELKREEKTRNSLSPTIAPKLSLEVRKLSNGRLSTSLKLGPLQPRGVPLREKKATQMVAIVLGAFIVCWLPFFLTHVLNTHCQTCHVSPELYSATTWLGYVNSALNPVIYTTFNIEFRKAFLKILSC
Chain of Receptor tyrosine-protein kinase erbB-4 (Homo sapiens) (Q15303 whole entry): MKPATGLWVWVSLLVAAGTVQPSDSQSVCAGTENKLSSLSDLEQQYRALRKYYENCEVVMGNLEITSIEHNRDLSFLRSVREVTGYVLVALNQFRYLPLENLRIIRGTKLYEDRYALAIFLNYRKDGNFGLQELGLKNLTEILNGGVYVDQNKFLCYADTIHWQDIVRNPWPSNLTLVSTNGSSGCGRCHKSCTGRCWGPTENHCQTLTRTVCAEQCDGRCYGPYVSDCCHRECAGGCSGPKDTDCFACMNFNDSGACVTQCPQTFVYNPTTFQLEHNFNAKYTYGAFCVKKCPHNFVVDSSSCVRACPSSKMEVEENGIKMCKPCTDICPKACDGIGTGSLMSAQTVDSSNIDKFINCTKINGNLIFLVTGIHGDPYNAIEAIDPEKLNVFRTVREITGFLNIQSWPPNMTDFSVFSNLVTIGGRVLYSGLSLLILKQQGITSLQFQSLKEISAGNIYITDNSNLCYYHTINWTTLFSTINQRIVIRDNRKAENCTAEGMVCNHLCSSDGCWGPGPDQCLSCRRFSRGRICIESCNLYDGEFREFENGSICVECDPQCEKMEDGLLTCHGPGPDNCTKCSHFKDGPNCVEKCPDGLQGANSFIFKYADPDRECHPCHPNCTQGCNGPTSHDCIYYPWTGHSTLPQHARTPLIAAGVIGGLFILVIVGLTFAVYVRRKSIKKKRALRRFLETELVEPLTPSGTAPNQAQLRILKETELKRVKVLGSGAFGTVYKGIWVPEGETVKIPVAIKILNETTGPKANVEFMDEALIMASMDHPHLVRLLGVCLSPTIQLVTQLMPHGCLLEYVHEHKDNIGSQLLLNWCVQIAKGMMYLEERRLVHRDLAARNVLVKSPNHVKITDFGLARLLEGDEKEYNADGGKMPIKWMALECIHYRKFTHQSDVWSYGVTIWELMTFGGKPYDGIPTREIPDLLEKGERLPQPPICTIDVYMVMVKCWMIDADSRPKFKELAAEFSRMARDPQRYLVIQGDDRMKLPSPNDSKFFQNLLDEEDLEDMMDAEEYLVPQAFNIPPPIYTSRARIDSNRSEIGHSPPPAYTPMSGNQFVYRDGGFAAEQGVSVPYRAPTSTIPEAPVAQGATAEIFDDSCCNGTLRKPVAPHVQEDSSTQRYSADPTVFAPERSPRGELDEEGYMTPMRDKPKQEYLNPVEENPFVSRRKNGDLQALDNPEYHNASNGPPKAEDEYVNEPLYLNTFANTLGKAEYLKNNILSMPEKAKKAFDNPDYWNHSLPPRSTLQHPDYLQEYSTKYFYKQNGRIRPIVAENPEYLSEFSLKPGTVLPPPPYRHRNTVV
Chain of Epithelial discoidin domain-containing receptor 1 (Homo sapiens) (Q08345 whole entry, the tested form may be a part): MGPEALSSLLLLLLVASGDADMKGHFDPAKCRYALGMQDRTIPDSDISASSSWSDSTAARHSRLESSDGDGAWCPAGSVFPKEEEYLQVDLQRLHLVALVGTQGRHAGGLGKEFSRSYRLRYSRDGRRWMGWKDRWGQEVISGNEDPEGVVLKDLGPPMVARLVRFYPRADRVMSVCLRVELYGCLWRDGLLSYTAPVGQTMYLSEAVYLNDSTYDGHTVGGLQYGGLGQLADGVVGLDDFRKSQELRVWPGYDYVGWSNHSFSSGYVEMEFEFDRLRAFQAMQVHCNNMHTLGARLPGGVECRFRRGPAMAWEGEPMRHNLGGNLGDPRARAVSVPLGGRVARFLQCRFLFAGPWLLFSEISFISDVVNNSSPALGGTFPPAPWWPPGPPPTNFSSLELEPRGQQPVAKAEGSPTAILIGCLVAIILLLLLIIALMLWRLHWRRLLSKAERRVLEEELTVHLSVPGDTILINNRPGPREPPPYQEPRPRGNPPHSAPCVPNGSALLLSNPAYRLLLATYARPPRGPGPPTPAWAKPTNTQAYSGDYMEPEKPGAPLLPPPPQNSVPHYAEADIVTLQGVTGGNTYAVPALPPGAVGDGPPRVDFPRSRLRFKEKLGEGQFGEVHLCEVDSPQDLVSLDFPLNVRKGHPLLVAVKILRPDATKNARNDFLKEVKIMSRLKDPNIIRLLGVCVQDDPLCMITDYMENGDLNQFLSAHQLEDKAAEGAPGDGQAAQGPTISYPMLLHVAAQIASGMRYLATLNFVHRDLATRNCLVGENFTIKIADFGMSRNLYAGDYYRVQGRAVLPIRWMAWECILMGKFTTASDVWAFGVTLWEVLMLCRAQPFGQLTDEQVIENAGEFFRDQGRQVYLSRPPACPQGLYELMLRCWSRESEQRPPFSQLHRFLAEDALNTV
Chain of Serine/threonine-protein kinase WNK4 (Homo sapiens) (Q96J92 whole entry): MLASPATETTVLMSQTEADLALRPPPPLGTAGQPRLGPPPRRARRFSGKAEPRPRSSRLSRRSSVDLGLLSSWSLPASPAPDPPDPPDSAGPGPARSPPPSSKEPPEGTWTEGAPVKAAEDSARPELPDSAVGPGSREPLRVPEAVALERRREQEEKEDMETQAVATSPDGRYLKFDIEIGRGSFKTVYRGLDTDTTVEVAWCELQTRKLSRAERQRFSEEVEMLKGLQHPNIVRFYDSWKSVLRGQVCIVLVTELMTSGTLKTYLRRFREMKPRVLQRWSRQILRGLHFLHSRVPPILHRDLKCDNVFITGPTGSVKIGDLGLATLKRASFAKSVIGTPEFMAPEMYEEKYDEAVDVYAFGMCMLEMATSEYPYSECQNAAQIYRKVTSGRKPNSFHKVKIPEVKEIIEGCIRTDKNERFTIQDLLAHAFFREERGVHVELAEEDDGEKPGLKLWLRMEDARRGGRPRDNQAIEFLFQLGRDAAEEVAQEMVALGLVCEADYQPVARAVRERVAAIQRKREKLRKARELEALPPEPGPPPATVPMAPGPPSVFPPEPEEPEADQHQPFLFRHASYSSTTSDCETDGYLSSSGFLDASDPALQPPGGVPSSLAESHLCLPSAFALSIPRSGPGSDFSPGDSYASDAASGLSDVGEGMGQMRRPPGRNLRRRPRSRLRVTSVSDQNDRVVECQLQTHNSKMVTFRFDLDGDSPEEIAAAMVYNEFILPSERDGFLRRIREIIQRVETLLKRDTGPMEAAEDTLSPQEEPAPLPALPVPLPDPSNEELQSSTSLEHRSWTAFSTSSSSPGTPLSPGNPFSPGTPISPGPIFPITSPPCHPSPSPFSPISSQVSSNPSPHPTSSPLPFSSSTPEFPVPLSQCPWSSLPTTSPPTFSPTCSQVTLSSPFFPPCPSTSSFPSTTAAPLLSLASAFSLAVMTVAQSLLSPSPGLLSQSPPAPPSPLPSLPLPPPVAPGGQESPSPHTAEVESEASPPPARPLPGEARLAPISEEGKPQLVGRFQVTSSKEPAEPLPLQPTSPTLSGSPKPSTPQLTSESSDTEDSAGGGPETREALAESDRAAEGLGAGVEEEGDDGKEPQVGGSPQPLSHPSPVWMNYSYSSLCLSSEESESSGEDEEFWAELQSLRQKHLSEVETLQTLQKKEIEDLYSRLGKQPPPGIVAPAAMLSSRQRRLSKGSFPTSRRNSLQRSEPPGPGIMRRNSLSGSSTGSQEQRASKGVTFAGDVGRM
Chain of Glycogen synthase kinase-3 alpha (Homo sapiens) (P49840 2-483 limits assumed): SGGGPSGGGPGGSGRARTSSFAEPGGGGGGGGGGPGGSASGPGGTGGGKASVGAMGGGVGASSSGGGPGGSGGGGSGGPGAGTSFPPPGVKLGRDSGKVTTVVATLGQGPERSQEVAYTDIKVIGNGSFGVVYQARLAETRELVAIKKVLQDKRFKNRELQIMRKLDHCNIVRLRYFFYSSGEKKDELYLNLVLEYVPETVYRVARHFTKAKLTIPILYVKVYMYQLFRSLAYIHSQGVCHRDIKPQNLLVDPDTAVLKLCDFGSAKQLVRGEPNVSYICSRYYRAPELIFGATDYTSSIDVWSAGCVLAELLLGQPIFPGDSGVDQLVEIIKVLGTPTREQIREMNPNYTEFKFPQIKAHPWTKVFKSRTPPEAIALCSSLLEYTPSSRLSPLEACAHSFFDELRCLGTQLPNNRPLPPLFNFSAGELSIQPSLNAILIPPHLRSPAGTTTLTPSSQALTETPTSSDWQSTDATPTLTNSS
Chain of Sigma intracellular receptor 2 (Q5BJF2 whole entry): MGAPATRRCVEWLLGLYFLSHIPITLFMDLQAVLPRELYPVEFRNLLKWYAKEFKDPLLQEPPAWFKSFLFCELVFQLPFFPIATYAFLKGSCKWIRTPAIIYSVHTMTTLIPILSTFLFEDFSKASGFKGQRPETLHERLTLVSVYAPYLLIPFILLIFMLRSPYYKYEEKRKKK
Chain of Serine/threonine-protein kinase Nek3 (Homo sapiens) (P51956 whole entry): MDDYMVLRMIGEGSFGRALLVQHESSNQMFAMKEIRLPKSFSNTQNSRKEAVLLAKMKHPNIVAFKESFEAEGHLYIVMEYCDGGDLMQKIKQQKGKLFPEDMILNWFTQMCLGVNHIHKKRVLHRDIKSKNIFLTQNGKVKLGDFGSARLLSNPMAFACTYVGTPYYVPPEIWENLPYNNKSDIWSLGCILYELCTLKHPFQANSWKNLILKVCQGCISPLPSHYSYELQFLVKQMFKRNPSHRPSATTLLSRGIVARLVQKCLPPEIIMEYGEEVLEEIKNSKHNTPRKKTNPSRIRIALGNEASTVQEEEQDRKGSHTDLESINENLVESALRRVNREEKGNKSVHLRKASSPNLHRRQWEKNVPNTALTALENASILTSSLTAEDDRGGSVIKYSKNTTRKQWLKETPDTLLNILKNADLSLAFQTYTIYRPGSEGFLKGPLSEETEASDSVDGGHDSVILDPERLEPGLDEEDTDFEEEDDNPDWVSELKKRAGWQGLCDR

Row | SMILES | residual activity [1] [%] | residual activity [2] [%] | residual activity [3] [%] | inhibition (D(3) dopamine receptor) [%] | residual activity [4] [%] | residual activity [5] [%] | residual activity [6] [%] | residual activity [7] [%] | residual activity [8] [%] | residual activity [9] [%] | residual activity [10] [%] | residual activity [11] [%] | inhibition [12] [%] | residual activity [13] [%] | residual activity [14] [%] | inhibition [15] [%] | residual activity [16] [%] | inhibition [17] [%] | inhibition [18] [%] | residual activity [19] [%] | further results
1 | CNC(=O)Nc1ccc2c(c1)CC[C@@]21OC(=O)N(CC(=O)N(Cc2ccc(F)cc2)[C@@H](C)C(F)(F)F)C1=O [A-485] | 99 | 100 | 76 | 1.52 | 60 | 58 | 68 | 93 | 94 | 100 | 100 | 91 | 29 | 87 | 89 | 16.5 | 100 | 50 | 7.26 | 100 | residual activity [20]: 100%; residual activity [21]: 77%; residual activity [22]: 77%; residual activity [23]: 76%; residual activity [24]: 73%; residual activity [25]: 81%; residual activity [26]: 76%; residual activity [27]: 73%
2 | CNC(=O)Nc1ccc2c(c1)[C@@]1(CC2)OC(=O)N(CC(=O)N(Cc2ccc(F)cc2)[C@@H](C)C(F)(F)F)C1=O [A-486] | 92 | 83 | 87 | 57.8 | 85 | 69 | 100 | 100 | 78 | 100 | 100 | 100 | 16 | 87 | 95 | -3.43 | 100 | 55.5 | 8.38 | 100 | residual activity [20]: 100%; residual activity [21]: 81%; residual activity [22]: 90%; residual activity [23]: 98%; residual activity [24]: 100%; residual activity [25]: 70%; residual activity [26]: 85%; residual activity [27]: 73%
